Patent publication US20260182572A1, “HERBICIDAL COMPOSITIONS” (SYNGENTA CROP PROTECTION AG, priority 2022, published 2026)

What was measured:
Format in all cases: in vivo
Conditions in all cases: sprayed after 8 days, evaluated after 13 days
[1] = test system: Digitaria sanguinalis (DIGSA); assay: Glasshouse post-emergence phytotoxicity test, Digitaria sanguinalis (DIGSA)
Description: (§1) Seeds of Amaranthus retroflexus (AMARE), Echinochloa crus-galli (ECHCG), Digitaria sanguinalis (DIGSA), Lolium perenne (LOLPE), Alopecurus myosuroides (ALOMY), Chenopodium album (CHEAL), and Ipomoea hederacea (IPOHE) were sown in standard sterilised soil in pots. After cultivation for 8 days under controlled conditions in a glasshouse (at 24/16° C., day/night; 14 hours light; 65% humidity), the plants were sprayed at 500 l/Ha with an aqueous spray solution derived from the formulation of the technical active ingredients in a small amount of acetone and a solvent and emulsifier mixture referred to as IF50 (11.12% Emulsogen EL360 TM+44.44% N-methylpyrrolidone+44.44% Dowanol DPM glycol ether), to create a 50 g/l solution which was then diluted using 0.2% Genapol XO80 (CAS Number: 9043-30-5) as diluent to give the desired final dose of test compound. Where active ingredients were applied as mixtures, aqueous spray solutions were prepared as above, containing both active ingredients. The test plants were then grown under controlled conditions in a glasshouse (at 24/16° C., day/night; 14 hours light; 65% humidity) and watered twice daily. After 13 days, the test was evaluated visually for percentage phytotoxicity to the plants (where 100=total damage to plant; 0=no damage to plant) when compared to control untreated plants. Two to four replicates were applied for each treatment in a randomised block test design.
(§2) 22., E=X+Y−(X*Y/100), where • X=average percent phytotoxicity of herbicide A when applied at a certain rate • Y=average percent phytotoxicity using herbicide B when applied at a certain rate • E=the expected effect of the mixture of herbicides A and B as calculated from the Colby formula.

[2] = test system: Amaranthus retroflexus (AMARE); assay: Glasshouse post-emergence phytotoxicity test, Amaranthus retroflexus (AMARE)
Description: as §1, §2

[3] = test system: Chenopodium album (CHEAL); assay: Glasshouse post-emergence phytotoxicity test, Chenopodium album (CHEAL)
Description: as §1, §2

Lolium perenne (LOLPE) = assay: Glasshouse post-emergence phytotoxicity test, Lolium perenne (LOLPE)
Description: as §1, §2

[4] = test system: Ipomoea hederacea (IPOHE); assay: Glasshouse post-emergence phytotoxicity test, Ipomoea hederacea (IPOHE)
Description: as §1, §2

[5] = test system: Echinochloa crus-galli (ECHCG); assay: Glasshouse post-emergence phytotoxicity test, Echinochloa crus-galli (ECHCG)
Description: as §1, with “Where active ingredients were applied as mixtures, aqueous spray solutions were prepared as above, containing both active ingredients. The test plants were then grown under controlled conditions in a glasshouse (at 24/16° C., day/night; 14 hours light; 65% humidity) and watered twice daily.” left out, “Two to four replicates were applied for each treatment in a randomised block test design.” left out
as §2

[6] = test system: Alopecurus myosuroides (ALOMY); assay: Glasshouse post-emergence phytotoxicity test, Alopecurus myosuroides (ALOMY)
Description: as §1, §2

SMILES	Observed percentage phytotoxicity ([1]; rate 0.313 g/ha) [%]	Observed percentage phytotoxicity ([2]; rate 0.078 g/ha) [%]	Observed percentage phytotoxicity ([3]; rate 0.156 g/ha) [%]	Observed percentage phytotoxicity ([3]; rate 0.313 g/ha) [%]	Observed percentage phytotoxicity (Lolium perenne (LOLPE); rate 0.156 g/ha) [%]	Observed percentage phytotoxicity (Lolium perenne (LOLPE); rate 0.313 g/ha) [%]	Observed percentage phytotoxicity ([4]; rate 0.313 g/ha) [%]	Observed percentage phytotoxicity ([1]; rate 0.156 g/ha) [%]	Observed percentage phytotoxicity ([6]; rate 0.039 g/ha) [%]	further results
COC(=O)CCNC(=O)C(C)Sc1cc(-n2c(=O)cc(C(F)(F)F)n(C)c2=O)c(F)cc1Cl (stereo not drawn) [B-II]	8	30	18	18	5	3	40			Observed percentage phytotoxicity ([3]; rate 0.078 g/ha): 15%; Observed percentage phytotoxicity ([4]; rate 0.156 g/ha): 18%
COC(=O)[C@@H](C)O/N=C/c1cc(-n2c(=O)cc(C(F)(F)F)n(C)c2=O)c(F)cc1Cl [A]	9	39	24	31	0	5	68	3	0	Observed percentage phytotoxicity ([5]; rate 0.313 g/ha): 1%; Observed percentage phytotoxicity ([2]; rate 0.156 g/ha): 68%; Observed percentage phytotoxicity ([3]; rate 0.625 g/ha): 33%; Observed percentage phytotoxicity (Lolium perenne (LOLPE); rate 0.078 g/ha): 3%; Observed percentage phytotoxicity ([4]; rate 0.078 g/ha): 20%; Observed percentage phytotoxicity ([6]; rate 0.313 g/ha): 3%
C=CCOC(=O)C(C)(C)OC(=O)c1cc(-n2c(=O)cc(C(F)(F)F)n(C)c2=O)ccc1Cl [B-I]	10	33	20	40		5		5	0	Observed percentage phytotoxicity ([1]; rate 0.625 g/ha): 15%; Observed percentage phytotoxicity ([5]; rate 0.625 g/ha): 5%; Observed percentage phytotoxicity (Lolium perenne (LOLPE); rate 0.039 g/ha): 0%; Observed percentage phytotoxicity (Lolium perenne (LOLPE); rate 0.625 g/ha): 5%; Observed percentage phytotoxicity ([6]; rate 0.625 g/ha): 8%
c1cc[n+]2c(c1)-c1cccc[n+]1CC2 [B-III]										Observed percentage phytotoxicity ([2]; rate 3.75 g/ha): 8%; Observed percentage phytotoxicity ([3]; rate 15 g/ha): 15%; Observed percentage phytotoxicity ([4]; rate 7.5 g/ha): 5%
